Patent publication US20040044006A1, “Methods of use of quinolone compounds against pneumococcal and haemophilus bacteria” (priority 1999, published 2004)
In brackets after ≈: the same amount, converted by molar mass. Like-named read-outs stand apart in the source and are kept apart here.

Tests used:
[1] = test system: quinolone susceptible pneumococci (ciprofloxacin MICs ≦4.0 μg/ml); test: Agar dilution MICs of 207 quinolone susceptible pneumococcal strains; type: cell-based, Streptococcus pneumoniae; conditions: Streptococcus pneumoniae, agar dilution; for MIC90: read-out: MIC90; for MIC: read-out: MIC range
Outline: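 Agar dilution MICs by prior methods on Mueller-Hinton agar with 5% sheep blood; S. pneumoniae ATCC 49619 among QC strains each run. Isolates were recent U.S. strains plus some from South Africa, Europe and Korea.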

[2] = test system: pneumococci with ciprofloxacin MICs ≧8 μg/ml; test: Quinolone agar dilution MICs of 28 ciprofloxacin resistant pneumococcal strains, correlated with QRDR mutations; type: cell-based, Streptococcus pneumoniae
Procedure: Additionally these strains were tested for mutations in parC, gyrA, parE, and gyrB (Pan, et al. Antimicrob. Agents Chemother. 40:2321-2326, 1996) and for efflux mechanism (Brenwald, et ail., Antimicrob. Agents Chemother. 42:2032-2035, 1998).
Gemifloxacin susceptibility powder was obtained from SmithKline Beecham Laboratories, Harlow, UK. Agar dilution methodology was performed on 28 strains as described previously (M. R. Jacobs, Clin. Infect. Dis. 15: 119-127, […] and M. R. Jacobs, Rev. Med. Microbiol. 6:77-93, 1995), using Mueller-Hinton altar (BBL Microbiology Systems, Cockeysville, Md.) supplemented with 5% sheep blood. Standard quality control strains, including Streptococcus pneumoniae ATCC 49619, were included in each run of agar dilution MICs.

pneumococcal strains = test: Microbroth dilution MICs of strains tested by time-kill and PAE; type: cell-based; conditions: Streptococcus pneumoniae, read-out: Microdilution MIC
Outline: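 S. pneumoniae ATCC 49619 served as control in each run. For the 12 time-kill and 6 PAE strains, MICs came from NCCLS microbroth dilution using cation-adjusted Mueller-Hinton broth plus 5% lysed defibrinated horse blood.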

[3] = test system: pneumococci (5 quinolone susceptible and 1 resistant strains); test: Post-antibiotic effect (PAE) testing; type: cell-based, Streptococcus pneumoniae
Outline: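 Pneumococci (~5×10^6 cfu/ml) in MHB with 5% lysed horse blood were exposed 1 h at 35 °C, the quinolone-resistant strain at 5×MIC, then diluted 1:1000. Viable counts every 2 h until McFarland #1 turbidity. PAE = T − C, the 1 log10 regrowth time versus untreated control; mean of two assays ±SD.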

[4] = all 207 strains (64 penicillin susceptible, 68 intermediate, 75 resistant)
[5] = agar dilution, 28 strains with ciprofloxacin MICs ≧8.0 μg/ml

In the case of C[C@@H]1CN(c2c(F)c(N)c3c(=O)c(C(=O)O)cn(C4CC4)c3c2F)C[C@H](C)N1 [Sparfloxacin, sparfloxacin], the MIC50 ([1]; Penicillin I strains) is reported as 0.5 mg/L (≈ 1.27 µM), the MIC90 ([1]; Penicillin I strains) is reported as 0.5 mg/L (≈ 1.27 µM) and the MIC ([1]; Penicillin I strains) is reported as 0.06 to 2 mg/L (≈ 0.153 to 5.1 µM). For the same compound, the MIC50 ([1]; Penicillin R strains) was 0.5 mg/L (≈ 1.27 µM), the MIC90 ([1]; Penicillin R strains) was 0.5 mg/L (≈ 1.27 µM) and the MIC ([1]; Penicillin R strains) was 0.06 to 1 mg/L (≈ 0.153 to 2.55 µM). The MIC50 ([1]; Penicillin S strains) was 0.5 mg/L (≈ 1.27 µM), the MIC90 ([1]; Penicillin S strains) was 1 mg/L (≈ 2.55 µM) and the MIC ([1]; Penicillin S strains) was 0.03 to 1 mg/L (≈ 0.0765 to 2.55 µM). For the same compound, the MIC50 [1, 4] was 0.5 mg/L (≈ 1.27 µM), the MIC90 [1, 4] was 0.5 mg/L (≈ 1.27 µM) and the MIC50 ([2]; Streptococcus pneumoniae) was 8 mg/L (≈ 20.4 µM). For the same compound, the MIC90 ([2]; Streptococcus pneumoniae) was 16 mg/L (≈ 40.8 µM), the MIC ([2]; Streptococcus pneumoniae, read-out: MICs in strains with three or four QRDR mutations, 20 strains, bound holds in all 20 (ciprofloxacin, levofloxacin, sparfloxacin), 19 (grepafloxacin), 10 (trovafloxacin), 18 (gemifloxacin)) was over 1 mg/L and the MIC ([2]; Streptococcus pneumoniae, read-out: MICs in strains with three or four QRDR mutations, 21 strains, bound holds in all 21 (ciprofloxacin, levofloxacin, sparfloxacin), 20 (grepafloxacin), 11 (trovafloxacin), 19 (gemifloxacin)) was at least 1 mg/L. It also gave an MIC ([2]; Streptococcus pneumoniae, strain 1, ParC S79-F, ParE I460-V, GyrA S81-F, GyrB None) of 4 mg/L (≈ 10.2 µM), an MIC ([2]; Streptococcus pneumoniae, strain 1, ParC S79-F, ParE I460-V, GyrA S83-F, GyrB None) of 4 mg/L (≈ 10.2 µM) and an MIC ([2]; Streptococcus pneumoniae, strain 3, ParC D83-N, ParE I460-V, GyrA S81-F, GyrB None) of 1 mg/L (≈ 2.55 µM). It also gave an MIC ([2]; Streptococcus pneumoniae, strain 3, ParC D83-N, ParE I460-V, GyrA S83-F, GyrB None) of 1 mg/L (≈ 2.55 µM), an MIC ([2]; Streptococcus pneumoniae, strain 4, ParC S79-F, ParE I460-V, GyrA S81-F, GyrB None) of 1 mg/L (≈ 2.55 µM) and an MIC ([2]; Streptococcus pneumoniae, strain 4, ParC S79-F, ParE I460-V, GyrA S83-F, GyrB None) of 1 mg/L (≈ 2.55 µM). It also gave an MIC ([2]; Streptococcus pneumoniae, strain 5, ParC R95-C, ParE D435-N, GyrA S81-F, GyrB None) of 1 mg/L (≈ 2.55 µM), an MIC ([2]; Streptococcus pneumoniae, strain 5, ParC R95-C, ParE D435-N, GyrA S83-F, GyrB None) of 1 mg/L (≈ 2.55 µM) and an MIC ([2]; Streptococcus pneumoniae, strain 6, ParC S79-Y, ParE I460-V, GyrA E85-K, GyrB None) of 8 mg/L (≈ 20.4 µM). For the same compound, the MIC ([2]; Streptococcus pneumoniae, strain 6, ParC S79-Y, ParE I460-V, GyrA E87-K, GyrB None) was 8 mg/L (≈ 20.4 µM), the MIC ([2]; Streptococcus pneumoniae, strain 7, ParC None, ParE I460-V, GyrA None, GyrB None) was 1 mg/L (≈ 2.55 µM) and the MIC ([2]; Streptococcus pneumoniae, strain 8, ParC S79-Y, ParE None, GyrA None, GyrB None) was 1 mg/L (≈ 2.55 µM). It also gave an MIC ([2]; Streptococcus pneumoniae, strain 9, ParC S79-Y, ParE None, GyrA None, GyrB None) of 2 mg/L (≈ 5.1 µM), an MIC ([2]; Streptococcus pneumoniae, strain 10, ParC S79-F, ParE I460-V, GyrA S81-C, GyrB None) of 4 mg/L (≈ 10.2 µM) and an MIC ([2]; Streptococcus pneumoniae, strain 10, ParC S79-F, ParE I460-V, GyrA S83-C, GyrB None) of 4 mg/L (≈ 10.2 µM). It also gave an MIC ([2]; Streptococcus pneumoniae, strain 11, ParC S79-F, ParE I460-V, GyrA S81-F, GyrB None) of 4 mg/L (≈ 10.2 µM), an MIC ([2]; Streptococcus pneumoniae, strain 11, ParC S79-F, ParE I460-V, GyrA S83-F, GyrB None) of 4 mg/L (≈ 10.2 µM) and an MIC ([2]; Streptococcus pneumoniae, strain 12, ParC S79-F, ParE I460-V, GyrA None, GyrB D435-N) of 1 mg/L (≈ 2.55 µM). For the same compound, the MIC ([2]; Streptococcus pneumoniae, strain 13, ParC S79-F, ParE I460-V, GyrA None, GyrB E474-K) was 8 mg/L (≈ 20.4 µM), the MIC ([2]; Streptococcus pneumoniae, strain 14, ParC S79-F, ParE I460-V, GyrA S81-F, GyrB None) was 8 mg/L (≈ 20.4 µM) and the MIC ([2]; Streptococcus pneumoniae, strain 14, ParC S79-F, ParE I460-V, GyrA S83-F, GyrB None) was 8 mg/L (≈ 20.4 µM). The MIC ([2]; Streptococcus pneumoniae, strain 15, ParC 79-F, ParE I460-V, GyrA S83-F, GyrB None) was 8 mg/L (≈ 20.4 µM), the MIC ([2]; Streptococcus pneumoniae, strain 15, ParC S79-F, ParE I460-V, GyrA S81-F, GyrB None) was 8 mg/L (≈ 20.4 µM) and the MIC ([2]; Streptococcus pneumoniae, strain 16, ParC S79-F, ParE I460-V, GyrA S81-F, GyrB None) was 8 mg/L (≈ 20.4 µM). It also gave an MIC ([2]; Streptococcus pneumoniae, strain 16, ParC S79-F, ParE I460-V, GyrA S83-F, GyrB None) of 8 mg/L (≈ 20.4 µM), an MIC ([2]; Streptococcus pneumoniae, strain 17, ParC D83-N, ParE None, GyrA S81-F, GyrB None) of 8 mg/L (≈ 20.4 µM) and an MIC ([2]; Streptococcus pneumoniae, strain 17, ParC D83-N, ParE None, GyrA S83-F, GyrB None) of 8 mg/L (≈ 20.4 µM). The MIC ([2]; Streptococcus pneumoniae, strain 18, ParC S79-F, ParE I460-V, GyrA S81-F, GyrB None) was 8 mg/L (≈ 20.4 µM), the MIC ([2]; Streptococcus pneumoniae, strain 18, ParC S79-F, ParE I460-V, GyrA S83-F, GyrB None) was 8 mg/L (≈ 20.4 µM) and the MIC ([2]; Streptococcus pneumoniae, strain 19, ParC S79-F, ParE I460-V, GyrA S81-F, GyrB None) was 8 mg/L (≈ 20.4 µM). For the same compound, the MIC ([2]; Streptococcus pneumoniae, strain 19, ParC S79-F, ParE I460-V, GyrA S83-F, GyrB None) was 8 mg/L (≈ 20.4 µM), the MIC ([2]; Streptococcus pneumoniae, strain 20, ParC S79-F, ParE I460-V, GyrA E85-K, GyrB None) was 8 mg/L (≈ 20.4 µM) and the MIC ([2]; Streptococcus pneumoniae, strain 20, ParC S79-F, ParE I460-V, GyrA E87-K, GyrB None) was 8 mg/L (≈ 20.4 µM). The MIC ([2]; Streptococcus pneumoniae, strain 21, ParC S79-F, ParE I460-V, GyrA S81-F, GyrB None) was 8 mg/L (≈ 20.4 µM), the MIC ([2]; Streptococcus pneumoniae, strain 21, ParC S79-F, ParE I460-V, GyrA S83-F, GyrB None) was 8 mg/L (≈ 20.4 µM) and the MIC ([2]; Streptococcus pneumoniae, strain 22, ParC S79-F, ParE I460-V, GyrA S81-Y, GyrB None) was 8 mg/L (≈ 20.4 µM). It also gave an MIC ([2]; Streptococcus pneumoniae, strain 22, ParC S79-F, ParE I460-V, GyrA S83-Y, GyrB None) of 8 mg/L (≈ 20.4 µM), an MIC ([2]; Streptococcus pneumoniae, strain 23, ParC S79-Y, ParE None, GyrA S81-A, GyrB None) of 8 mg/L (≈ 20.4 µM) and an MIC ([2]; Streptococcus pneumoniae, strain 23, ParC S79-Y, ParE None, GyrA S83-A, GyrB None) of 8 mg/L (≈ 20.4 µM). For the same compound, the MIC ([2]; Streptococcus pneumoniae, strain 26, ParC S79-F, ParE None, GyrA S81-Y, GyrB None) was over 32 mg/L, the MIC ([2]; Streptococcus pneumoniae, strain 26, ParC S79-F, ParE None, GyrA S83-Y, GyrB None) was over 32 mg/L and the MIC ([2]; Streptococcus pneumoniae, strain 27, ParC S79-Y, ParE I460-V, GyrA S81-F, GyrB None) was over 32 mg/L. For the same compound, the MIC ([2]; Streptococcus pneumoniae, strain 27, ParC S79-Y, ParE I460-V, GyrA S83-F, GyrB None) was over 32 mg/L, the MIC ([2]; Streptococcus pneumoniae, strain 28, ParC D83-G N91-D, ParE None, GyrA S81-F S114-G, GyrB None) was over 32 mg/L and the MIC ([2]; Streptococcus pneumoniae, strain 28, ParC cell empty, ParE None, GyrA S83-F and S116-G, GyrB None) was over 32 mg/L. It also gave an MIC50 [2, 5] of 8.0 mg/L (≈ 20.4 µM), an MIC90 [2, 5] of 16.0 mg/L (≈ 40.8 µM) and an MIC (pneumococcal strains; strain 1 (S) penicillin susceptible) of 0.125 mg/L (≈ 0.319 µM). It also gave an MIC (pneumococcal strains; strain 2 (S) penicillin susceptible) of 0.25 mg/L (≈ 0.637 µM), an MIC (pneumococcal strains; strain 3 (S) penicillin susceptible, quinolone-resistant) of 32 mg/L (≈ 81.5 µM) and an MIC (pneumococcal strains; strain 4 (S) penicillin susceptible, quinolone-resistant) of 16 mg/L (≈ 40.8 µM). The MIC (pneumococcal strains; strain 5 (I) penicillin intermediate) was 0.5 mg/L (≈ 1.27 µM), the MIC (pneumococcal strains; strain 6 (I) penicillin intermediate) was 0.25 mg/L (≈ 0.637 µM) and the MIC (pneumococcal strains; strain 7 (I) penicillin intermediate) was 0.25 mg/L (≈ 0.637 µM). For the same compound, the MIC (pneumococcal strains; strain 8 (I) penicillin intermediate) was 0.25 mg/L (≈ 0.637 µM), the MIC (pneumococcal strains; strain 9 (R) penicillin resistant) was 0.5 mg/L (≈ 1.27 µM) and the MIC (pneumococcal strains; strain 10 (I)) was 0.25 mg/L (≈ 0.637 µM). It also gave an MIC (pneumococcal strains; strain 11 (R) penicillin resistant) of 0.25 mg/L (≈ 0.637 µM), an MIC (pneumococcal strains; strain 12 (R) penicillin resistant) of 0.5 mg/L (≈ 1.27 µM) and a PAE ([3]; 5×MIC, quinolone resistant strain) of 1.5 h. It also gave a PAE ([3]; 10×MIC for 1 h, range over 5 quinolone susceptible strains) of 0.3 to 2.0 h.
